# Data taken from ChEMBL document CHEMBL3639094, “Organic compounds” (2014).
# Molecular target: T1, Cholesteryl ester transfer protein (Homo sapiens, UniProt P11597)
# T1 sequence (P11597 whole entry): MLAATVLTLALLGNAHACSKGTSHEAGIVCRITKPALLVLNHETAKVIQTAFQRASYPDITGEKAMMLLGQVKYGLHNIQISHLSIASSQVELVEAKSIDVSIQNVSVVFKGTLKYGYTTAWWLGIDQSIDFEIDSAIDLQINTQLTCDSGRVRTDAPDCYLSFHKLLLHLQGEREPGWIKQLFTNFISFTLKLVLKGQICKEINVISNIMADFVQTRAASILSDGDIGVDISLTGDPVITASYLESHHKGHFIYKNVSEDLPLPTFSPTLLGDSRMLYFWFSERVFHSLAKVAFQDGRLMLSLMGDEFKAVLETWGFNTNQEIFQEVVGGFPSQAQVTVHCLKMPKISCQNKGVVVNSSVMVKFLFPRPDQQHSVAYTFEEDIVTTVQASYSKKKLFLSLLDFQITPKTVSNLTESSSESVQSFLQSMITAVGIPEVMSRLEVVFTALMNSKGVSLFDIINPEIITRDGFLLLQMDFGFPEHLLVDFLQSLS
# Test: In Vitro Assay: CETP Activity Kit (#RB-RPAK) was purchased from Roar Biochemical, Inc. (New York, N.Y., USA). To each well of a 96-well NBS half-area plate (costar #3686), 1.2 ng/well of the donor solution, 1 uL of the acceptor solution and 5 uL compound solution diluted in 100% DMSO were added in a 38 uL of buffer containing 10 mM Tris, 150 mM NaCl and 2 mM EDTA, pH 7.4. Then, the plate was sealed with Themowell Sealers (costar #6524) and followed by a mixing on a plate shaker by MICROPLATE MIXER MPX-96 (IWAKI) at power 3 for 10 sec at room temperature. After 10-min incubation at 37C., the reaction was started by adding 5 uL of rhCETP solution (Cardiovascular Target, New York, N.Y., USA) and mixed on the plate shaker for 10 sec, then the fluorescence intensity at 0 min was measured by a ARVO SX (Perkin Elmerr, USA) at excitation wavelength of 465 nm and emission wavelength of 535 nm. After 120 min-incubation at 37C., fluorescence intensity was measured again.
row,Compound,IC50 [nM]
1,CC[C@@H]1C[C@H](N(Cc2cc(C(F)(F)F)cc(C(F)(F)F)c2)c2ncc(-c3cnn(C)c3)cn2)CN1c1nc(N2CCC(C(=O)O)CC2)ncc1Cl,77
2,CC[C@@H]1C[C@H](N(Cc2cc(C(F)(F)F)cc(C(F)(F)F)c2)c2ncc(N3CCOCC3)cn2)CN1c1nc(N2CCC(C(=O)O)CC2)ncc1Cl,130
3,CC[C@@H]1C[C@H](N(Cc2cc(C(F)(F)F)cc(C(F)(F)F)c2)c2ncc(-c3cnn(C)c3)cn2)CN1C(=O)OC(C)C,23
4,CC[C@@H]1C[C@H](N(Cc2cc(C(F)(F)F)cc(C(F)(F)F)c2)c2ncc(-c3cnn(C)c3)cn2)CN1C(=O)OCC1(C)COC1,53
